# Results: ChEMBL document CHEMBL1151888, “Synthesis, initial SAR and biological evaluation of 1,6-dihydroimidazo[4,5-d]pyrrolo[2,3-b]pyridin-4-amine derived inhibitors of IkappaB kinase” (Bioorg Med Chem Lett, 2009)
# Activity calls are given as the source filed them. No cut-off for these calls is given here.
# Experiments:
# [1] = Inhibition of IKK1-catalyzed phosphorylation of GST-tagged IkappaBalpha fusion protein by fluorescence polarization assay
# PBMC = assay: Antiinflammatory activity in human PBMC assessed as inhibition of LPS-induced TNFalpha production treated 30 mins before LPS challenge measured after 6 hrs of LPS induction by ELISA; assay type: functional, cell-based
# [2] = Solubility of the compound; assay type: physicochemical
# Blood [3] = assay: Antiinflammatory activity in Lewis rat whole blood assessed as inhibition of LPS-induced TNFalpha production at 17 uM treated 45 mins before LPS challenge measured after 4 hrs by ELISA; assay type: functional, tissue-based
# [4] = Aqueous solubility at pH 1.0; assay type: physicochemical; details: aqueous solution
# [5] = Total AUC in rat at 2 mg/kg, iv; assay type: ADME, organism-based; design: time AUCmax, dose 2 mg/kg, route intravenous; details: in vivo
# [6] = Total AUC in rat at 10 mg/kg, po; assay type: ADME, organism-based; design: time AUCmax, dose 10 mg/kg, route oral; details: in vivo
# [7] = Half life in rat at 2 mg/kg, iv; assay type: ADME, organism-based; design: dose 2 mg/kg, route intravenous; details: in vivo
# [8] = Half life in rat at 10 mg/kg, po; assay type: ADME, organism-based; design: dose 10 mg/kg, route oral; details: in vivo
# [9] = Mean residence time in rat at 2 mg/kg, iv; assay type: ADME, organism-based; design: dose 2 mg/kg, route intravenous; details: in vivo
# [10] = Mean residence time in rat at 10 mg/kg, po; assay type: ADME, organism-based; design: dose 10 mg/kg, route oral; details: in vivo
# [11] = Clearance in rat at 2 mg/kg, iv; assay type: ADME, organism-based; design: dose 2 mg/kg, route intravenous; details: in vivo
# [12] = Volume of distribution at steady state in rat at 2 mg/kg, iv; assay type: ADME, organism-based; design: dose 2 mg/kg, route intravenous; details: in vivo, read-out: Vdss
# [13] = Oral bioavailability in rat at 10 mg/kg; assay type: ADME, organism-based; details: in vivo
# Rattus norvegicus [14] = assay: Antiinflammatory activity in po dosed Lewis rat assessed as inhibition of LPS-induced TNFalpha production administered 4 hrs before LPS challenge measured after 90 mins by ELISA; assay type: functional, organism-based
# Rattus norvegicus [15] = assay: Antiinflammatory activity in Lewis rat assessed as inhibition of LPS-induced TNFalpha production at 30 mg/kg, po administered 4 hrs before LPS challenge measured after 90 mins by ELISA; assay type: functional; design: scale not given: the % may be the effect or the level left
# Blood [16] = assay: Antiinflammatory activity in Lewis rat whole blood assessed as inhibition of LPS-induced TNFalpha production treated 45 mins before LPS challenge measured after 4 hrs by ELISA; assay type: functional, tissue-based
# Serum [17] = assay: Drug level in Lewis rat serum at 3 mg/kg, po; assay type: ADME, organism-based; design: dose 3 mg/kg, route oral; details: in vivo, read-out: Drug uptake
# Serum [18] = assay: Drug level in Lewis rat serum at 10 mg/kg, po; assay type: ADME, organism-based; design: dose 10 mg/kg, route oral; details: in vivo, read-out: Drug uptake
# Serum [19] = assay: Drug level in Lewis rat serum at 30 mg/kg, po; assay type: ADME, organism-based; design: dose 30 mg/kg, route oral; details: in vivo, read-out: Drug uptake
# [20] = target: Inhibitor of nuclear factor kappa-B kinase subunit alpha (Homo sapiens) (UniProt O15111); assay: Inhibition of IKK2-catalyzed phosphorylation of GST-tagged IkappaBalpha fusion protein by fluorescence polarization assay
# Sequence of Inhibitor of nuclear factor kappa-B kinase subunit alpha (Homo sapiens) (O15111 whole entry, looked up, the tested form may be a part): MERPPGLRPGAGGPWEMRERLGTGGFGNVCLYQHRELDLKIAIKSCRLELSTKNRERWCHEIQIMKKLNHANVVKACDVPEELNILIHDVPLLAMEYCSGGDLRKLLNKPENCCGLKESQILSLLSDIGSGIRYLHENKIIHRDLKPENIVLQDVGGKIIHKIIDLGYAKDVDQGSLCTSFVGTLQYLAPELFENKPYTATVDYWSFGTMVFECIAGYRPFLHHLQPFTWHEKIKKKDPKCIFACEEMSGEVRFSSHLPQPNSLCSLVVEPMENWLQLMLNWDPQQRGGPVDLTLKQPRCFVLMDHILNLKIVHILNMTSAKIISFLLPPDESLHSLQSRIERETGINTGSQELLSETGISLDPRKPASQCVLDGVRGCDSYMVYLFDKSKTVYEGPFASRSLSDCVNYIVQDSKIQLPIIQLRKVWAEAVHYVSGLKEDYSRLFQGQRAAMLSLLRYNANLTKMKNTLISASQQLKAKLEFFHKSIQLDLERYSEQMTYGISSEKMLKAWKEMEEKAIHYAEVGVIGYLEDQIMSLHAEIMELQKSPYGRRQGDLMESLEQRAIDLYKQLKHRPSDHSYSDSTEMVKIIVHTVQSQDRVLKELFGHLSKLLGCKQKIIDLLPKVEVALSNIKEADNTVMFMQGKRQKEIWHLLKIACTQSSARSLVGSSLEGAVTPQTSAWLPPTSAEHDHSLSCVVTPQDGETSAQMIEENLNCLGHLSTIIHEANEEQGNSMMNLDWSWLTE
IC50 [1] [nM],Compound,IC50 (PBMC) [nM],also measured
8,CNc1nc2[nH]c(-c3cccc(OC)c3)cc2c2c1ncn2C,320,
,CNc1nc2[nH]c(-c3cccc(CN)c3)cc2c2c1ncn2C,340,
,CNc1nc2oc(-c3ccccc3)nc2c2c1ncn2C,390,
7,CNc1nc2[nH]c(-c3cccc(C#N)c3)cc2c2c1ncn2C,86,solubility [2]: < 5 µg/mL
,CNc1nc2[nH]c(-c3cccc(CNC(=O)CO)c3)cc2c2c1ncn2C,478,
12,CNc1nc2[nH]c(-c3cccc(CNC(=O)CCOC)c3)cc2c2c1ncn2C,370,Activity (Blood [3]): Active; solubility [4]: 1820 µg/mL; AUC [5]: 46.9 µM·h; AUC [6]: 71.7 µM·h; half-life [7]: 288 min; half-life [8]: 660 min; MRT [9]: 2.1 h; MRT [10]: 14.7 h; clearance [11]: 1.8 mL/min/kg; Vd [12]: 0.2 L/kg; bioavailability [13]: 31%; Activity (Rattus norvegicus [14]): Dose-dependent effect; Activity (Rattus norvegicus [15]): 85%; IC50 (Blood [16]): 8 µM; concentration (Serum [17]): 900 nM; concentration (Serum [18]): 3000 nM; concentration (Serum [19]): 17 µM; IC50 [20]: 2620 nM
,CNc1nc2[nH]c(-c3ccccc3)cc2c2c1ncn2C,800,
,CNc1nc2sc(-c3ccccc3)nc2c2c1ncn2C,310,
14,CNc1nc2[nH]c(-c3cccc(CNC(C)=O)c3)cc2c2c1ncn2C,372,IC50 [20]: 633 nM
,CNc1nc2c(nc(-c3ccccc3)n2C)c2c1ncn2C,446,
,CNc1nc2[nH]c(-c3ccccc3F)cc2c2c1ncn2C,931,
43,CNc1nc2[nH]c(-c3ccc(F)cc3)cc2c2c1ncn2C,538,IC50 [20]: 1730 nM
,CNc1nc2[nH]c(-c3cccc(F)c3)cc2c2c1ncn2C,153,
79,CNc1nc2[nH]c(-c3cccc(CNC(=O)CN(C)C)c3)cc2c2c1ncn2C,2000,
22,CNc1nc2[nH]c(-c3cccc(CNC(=O)CCC(N)=O)c3)cc2c2c1ncn2C,1000,
